Ends that are not written are not given here.
Columns and labels:
GFP-PAK4-Δcat = assay: GST-integrin β5 fusion pull-down of GFP-PAK4-Δcat expressed in cells; type: binding, human; details: Figure 1C source data
Experimental: (§1) For pulldowns from cell lysates, human PAK4 constructs were generated in pEGFP (Takara Bio Inc.) by PCR amplification from a pLX304 PAK4 isoform 1 (Uniprot O96013-1) construct kindly provided by Michael Calderwood (Dana-Farber Cancer Institute). Mutations and deletions were introduced by QuikChange mutagenesis or PCR amplification. Chinese hamster ovary (CHO) cells were seeded on 10 cm tissue culture dishes and transiently transfected with GFP-tagged constructs using polyethylenimine (Polysciences). After 24 h, cells were harvested and lysed in buffer X (1 mM NaVO4, 50 mM NaF, 40 mM sodium pyrophosphate, 50 mM NaCl, 150 mM sucrose, 10 mM Pipes, pH 6.8) containing 0.5% Triton X-100, 0.2% deoxycholic acid, and complete EDTA-free protease inhibitor mixture (Roche, Indianapolis, IN, USA) for 15 min at 4 °C. After clarification by centrifugation, lysate was diluted in buffer X-T (buffer X with 0.05% Triton X-100) and incubated with His-tagged integrin tails coupled to Ni-NTA beads for 4 h with rocking at 4 °C. For experiments using purified PAK4cat, protein was incubated with His-tagged integrin tails coupled to Ni-NTA beads in buffer X-T for 2 h with rocking at 4 °C. Beads were then washed three times with buffer X-T, and bound proteins were fractionated by reducing SDS-PAGE and analyzed by immunoblotting with anti-GFP antibodies (600-101-215, Rockland). Immunoblots were imaged on an Odyssey IR imaging system (Li-Cor; Lincoln, NE, USA) and analyzed using Image Studio Lite (Li-Cor; Lincoln, NE, USA). For the quantification of binding from immunoblots, the fluorescence intensity of the band corresponding to bound material was quantified as a fraction of the fluorescence of the input material band for each condition. Loading of integrin tails was assessed by Coomassie Blue staining. Data were analyzed using GraphPad Prism.

GFP-PAK4-cat = assay: GST-integrin β5 fusion pull-down of GFP-PAK4-cat expressed in cells; type: binding, human; details: Figure 1C source data
Experimental: as §1

PAK4-cat = assay: Pull-down of purified recombinant PAK4-cat by His-tagged integrin tails on Ni-NTA beads; type: binding, human
Experimental: Pull down assays were performed as previously described[45],[60]. Briefly, constructs encoding an N-terminal His-tag followed by a helical region, a 4-glycine spacer, and an integrin cytoplasmic tail sequence were produced in BL21 (DE3) bacteria. Following bacterial cell lysis, recombinant protein was bound to Ni-NTA beads, eluted with imidazole, dialyzed and further purified by reverse-phase high-performance liquid chromatography (HPLC). Purified protein was lyophilized for storage and was used to coat fresh Ni-NTA beads to generate an affinity matrix for pull-down assays.
as §1

PAK6 = assay: In vitro phosphorylation of integrin β5 tail by PAK6; type: biochemical; details: in vitro kinase assay, Fig. 5a
PAK4 = target: T1, PAK4 (Homo sapiens, UniProt O96013); assay: In vitro phosphorylation of integrin β5 tail by PAK4; type: biochemical; details: in vitro kinase assay, Fig. 5a
T1 construct: catalytic domain of PAK4 (UniProt ID:O96013) was sub-cloned into a modified pET28a vector; 6xHis (TEV-cleavable) (N); made in house; host or cells: E. coli BL21-CodonPlus(DE3)RILP
T1 sequence (O96013 321-572 limits assumed): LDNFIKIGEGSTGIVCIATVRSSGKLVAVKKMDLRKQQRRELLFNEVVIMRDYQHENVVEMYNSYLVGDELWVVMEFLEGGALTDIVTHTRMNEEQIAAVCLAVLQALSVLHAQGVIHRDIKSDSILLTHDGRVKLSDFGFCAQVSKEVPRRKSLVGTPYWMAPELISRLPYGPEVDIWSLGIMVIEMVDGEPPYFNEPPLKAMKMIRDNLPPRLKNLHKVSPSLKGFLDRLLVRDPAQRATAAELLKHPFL

PAK4cat = assay: Radioactive kinase assay with MBP as substrate; type: biochemical, human; details: in vitro kinase assay, full-length tail 6-50 μM
Experimental: Impact of full-length cytosolic integrin β5 on kinase activity was assessed using a radioactive assay with myelin basic protein (MBP) as substrate. Assays were performed by addition of 0.1 µM of PAK4cat kinase, 2 µM of MBP, cytosolic full-length integrin β5 ^743–799 (50, 25, 12, and 6 μM), with 12 µM of cold ATP and 0.05 µCi of hot [γ33-P] ATP in Tris buffer (20 mM Tris-HCl (pH 8.0), 0.3 M NaCl, 1 mM TCEP, and 10 mM MgCl2) with a total volume of 25 µL. The reaction was conducted at 30 °C for 7–11 min then stopped by the addition of 5× sample buffer and analyzed by SDS-PAGE. Dried gels were analyzed by exposure to phosphor storage screen (GE Healthcare) followed by scanning using a Molecular Imager FX Pro Plus System (Bio-Rad) and quantified by optical densitometry Quantity One (Bio-Rad). Measurements were calculated from three independent experiments. Significant differences were calculated by Prism 7 (GraphPad Software) with ANOVA analysis. Impact of short integrin β5 peptide on kinase activity was assessed using a radioactive assay with a LIM kinase peptide (RKKRYTVVGN, LIMtide) as substrate. The concentration of PAK4 and LIMtide were kept constant at 0.2 and 50 µM, respectively. […] Duplicate measurements were calculated from three independent experiments. […]

Substance: B5 746-758: GST-fusion truncation of integrin β5 tail ending at residue 758 (VTIHDRREFAKFQ; also: GST fusion, end not given here; UniProt P18084 746-758, looked up, fragment)
- PAK4 Nterm bound (pull-down quantification) (GFP-PAK4-Δcat; replicate 3): 0
- PAK4 Nterm bound (pull-down quantification) (GFP-PAK4-Δcat; replicate 4): 0.03887
- PAK4 Nterm bound (pull-down quantification) (GFP-PAK4-Δcat; replicate 5): 0.08311
- PAK4 Nterm bound (pull-down quantification) (GFP-PAK4-Δcat; replicate 6): 0
- PAK4 Nterm bound (pull-down quantification) (GFP-PAK4-Δcat; replicate 7): 0
- PAK4 Cat bound (pull-down quantification) (GFP-PAK4-cat; bound band as fraction of input, replicate column 1 of 7): 0.2198
- PAK4 Cat bound (pull-down quantification) (GFP-PAK4-cat; replicate column 6 of 7): 0.1642
- PAK4 Cat bound (pull-down quantification) (GFP-PAK4-cat; replicate column 7 of 7): 0.1513

Substance: B5 746-762: GST-fusion truncation of integrin β5 tail ending at residue 762 (VTIHDRREFAKFQSERS; also: GST fusion, end not given here; UniProt P18084 746-762, looked up, fragment)
- PAK4 Nterm bound (pull-down quantification) (GFP-PAK4-Δcat; replicate 6): 0
- PAK4 Nterm bound (pull-down quantification) (GFP-PAK4-Δcat; replicate 7): 0
- PAK4 Cat bound (pull-down quantification) (GFP-PAK4-cat; replicate column 6 of 7): 0.1712
- PAK4 Cat bound (pull-down quantification) (GFP-PAK4-cat; replicate column 7 of 7): 0.5556

Substance: integrin β5 cytoplasmic tail: Recombinant His-tagged integrin β5 cytoplasmic tail, residues 743–799 (KLLVTIHDRREFAKFQSERSRARYEMASNPLYRKPISTHTVDFTFNKFNKSYNGTVD; also: 6xHis tag)
- PAK4Cat bound to tail (pull-down quantification) (PAK4-cat; 5 nM PAK4Cat, replicate 2): 4.211
- PAK4Cat bound to tail (pull-down quantification) (PAK4-cat; 50 nM PAK4Cat, replicate 1): 47.6856
- PAK4Cat bound to tail (pull-down quantification) (PAK4-cat; 50 nM PAK4Cat, replicate 2): 66.5041
- PAK4Cat bound to tail (pull-down quantification) (PAK4-cat; 100 nM PAK4Cat, replicate 1): 90.1913
- PAK4Cat bound to tail (pull-down quantification) (PAK4-cat; 100 nM PAK4Cat, replicate 2): 166.368
- PAK4Cat bound to tail (pull-down quantification) (PAK4-cat; 200 nM PAK4Cat, replicate 1): 112.727
- PAK4Cat bound to tail (pull-down quantification) (PAK4-cat; 200 nM PAK4Cat, replicate 2): 69.6949
- PAK4Cat bound to tail (pull-down quantification) (PAK4-cat; 500 nM PAK4Cat, replicate 1): 260.384
- PAK4Cat bound to tail (pull-down quantification) (PAK4-cat; 500 nM PAK4Cat, replicate 2): 185.982
- PAK4Cat bound to tail (pull-down quantification) (PAK4-cat; 750 nM PAK4Cat, replicate 2): 239.04
- PAK4Cat bound to tail (pull-down quantification) (PAK4-cat; 1000 nM PAK4Cat, replicate 1): 443.221
- PAK4Cat bound to tail (pull-down quantification) (PAK4-cat; 1000 nM PAK4Cat, replicate 2): 367.326
- PAK4Cat bound to tail (pull-down quantification) (PAK4-cat; 2000 nM PAK4Cat, replicate 2): 619.089
- PAK4Cat bound to tail (pull-down quantification) (PAK4-cat; 2000 nM PAK4Cat, replicate 3): 750
- PAK4Cat bound to tail (pull-down quantification) (PAK4-cat; 3000 nM PAK4Cat, replicate 1): 966.407
- PAK4Cat bound to tail (pull-down quantification) (PAK4-cat; 3000 nM PAK4Cat, replicate 2): 705.982
- PAK4Cat bound to tail (pull-down quantification) (PAK4-cat; 4000 nM PAK4Cat, replicate 2): 871.714
- PAK4Cat bound to tail (pull-down quantification) (PAK4-cat; 5000 nM PAK4Cat, replicate 3): 875
- PAK4Cat bound to tail (pull-down quantification) (PAK4-cat; Figure 1D source data, 5 nM PAK4Cat, replicate 1): 9.128
- Phosphorylation of integrin β5 by PAK6 (PAK6): does not display strong phosphorylation
- Kinase activity of PAK4 towards the integrin β5 tail (phosphorylation, words) (PAK4): negligible
- Effect on PAK4 catalytic activity (PAK4cat): suppression of catalytic activity
